Reference: publication PMC9088311, “Cyclic Thiosulfonates for Thiol-Mediated Uptake: Cascade Exchangers, Transporters, Inhibitors” (JACS Au, 2022)
Converted amounts (≈) assume the structure as drawn. “And” between values parts separate entries of the source, which are not always exact repeats. Identical values can stand only once.

What was measured:
HeLa Kyoto cells = experiment: Relative viability (HOE/PI) in HCHT screening
Protocol: One advantage of HCHT imaging of cellular uptake compared to flow cytometry[38],[42],[43] is that it simultaneously gives information on toxicity and intracellular localization. […] Information on the intracellular localization of reporters can be quantified through segmentation of cellular compartments stained with specific markers.[52]
(§1) Uptake inhibition was measured by the automated HCHT imaging used already to elaborate on cytosolic delivery. For inhibitor screening, HK cells in multiwell plates were incubated with increasing concentrations of inhibitors, followed by fluorescent transporters 28, 31, and 32 at a constant concentration. […] If inhibitors are removed before the addition of transporters 28, 31, and 32, the method is referred to as “pre-incubation”. This is of interest to minimize exchange between the transporter and the inhibitor but is often problematic because dynamic covalent exchange between the inhibitor and cellular target can also be reversed and thus lost. The complementary “co-incubation” operates without inhibitor removal before the addition of transporters 28, 31, and 32.
Relative cell viability ( RV) for each condition in the presence of inhibitors was calculated […]
of the relative cell viability ( RVrel) to the concentration of inhibitors ( cinhibitor ) was plotted and fitted with Equation (S19) to retrieve the concentration causing 50% cell growth inhibition (RV50) value and the Hill coefficient ( n).

HK cells, transporter 31 = experiment: HCHT imaging: inhibition of cytosolic delivery of ETP transporter 31; type: cell-based, Human; conditions: co-incubation (C), inhibitor 1 h; for IC50 / IC15: Homo sapiens, 1 h; for IC50: read-out: IC50 (concentration needed to reach 50% inhibition), transporter 31 10 μM; for IC15: read-out: MIC (concentration needed to reach 15% inhibition), transporter 31 10 μM; for MIC (concentration needed to reach 15% inhibition): transporter 31 10 μM
Protocol: as §1
(§2) 536/40 nm emission filter, and red with 531/40 nm excitation filter and 593/40 nm emission […]
(§3) 4.3. HCHT Inhibitor Screening
(§4) Pre-Incubation Method. As in ref. S1. HeLa Kyoto cells were seeded at 8 ×10^4 cells/mL in FluoroBrite DMEM + 10% FBS on μ-Plate 96-well Black ibiTreat sterile and incubated at 37 °C with 5% CO 2 for 24 h. Then, the medium was removed and cells were washed with PBS ([…]), fresh FluoroBrite DMEM medium (4 × 150 μL/well) was added into the cells using a plate washer (Biotek EL406®), keeping a final volume of 135 μL/well. Different concentrations of the inhibitors were prepared by serial dilution with 10% final concentration DMSO (10× in PBS). The solution of compounds 4 and 33 was prepared final DMSO concentration of 10% in each dilution (10× in PBS). These inhibitor solutions (10× final concentration), transporter 28 (10× in DMEM), transporters 31 and 32 (10× in PBS) a solution of HOE (100 μg/mL) and PI (10 μg/mL) in PBS were prepared freshly in a 96-well V-bottom plate before adding to the cells. The inhibitor solutions from the V-bottom plate were added to the cells (15 μL/well) in a final volume of 150 μL/well using an electronic multichannel pipette and cells were incubated for 1 h at 37 °C with 5% CO 2. After this incubation, cells were washed again with PBS and DMEM using the plate washer (in the way mentioned above), and transporter 28 , 31 or 32 from the V-bottom plate was added (15 μL/well) to the cells in a final volume of 150 μL/well. A final concentration of each transporter 28 , 31 and 32 was 5 μM, 10 μM and 0.5 μM, respectively, except for the control wells, where only PBS was added (15 μL/well). Cells treated with transporter 28 or 31 were incubated for 30 min, and cells treated with 32 were incubated for 2 h at 37 °C with 5% CO 2. After that, the cells were washed with PBS and DMEM using the plate washer, and the solution of Hoechst 33342 and PI from the V-bottom plate was added (15 μL/well) to the cells in a final volume of 150 μL/well. After 15 min of incubation at 37 °C with 5% CO 2, the cells were washed and kept in clean FluoroBrite
(§5) DMEM. For live cell imaging, samples were kept at 37 °C with 5% CO 2 during the microscope imaging. The distribution of fluorescence stained cells was analyzed without fixing using an […]

[1] = Dynamic covalent ring opening with thiol 10, 1H NMR kinetics; type: physicochemical
Protocol: The dynamic covalent opening of CTO 3 with thiols yields product 9 with a disulfide and a sulfinate (Figure 3B). Consistent with short chalcogen bonds found in silico, the opening of CTO 3 was instantaneous on an NMR timescale with most thiols. To decelerate ring opening, bulky thiols were considered in combination with lowered pH to deactivate the nucleophile. With N-Ac-D-penicillamine 10, the opening of 5 mM CTO 3 in phosphate buffer/DMSO-d6 9:1 was still immediate at pD 6.7 but became detectable in ^1H NMR spectroscopy kinetics under more acidic conditions. The ring-opening rate constants k^O were estimated by fitting the initial velocities to second-order kinetics. Only lower bound rates were approximated from the earliest determined substrate conversions when reactions were still too fast despite the unfavorable conditions. At pD 5.4, dynamic covalent ring opening of CTO 3 with equimolar tertiary thiol 10 occurred with k^O > 0.49 M^–1 s^–1 and equilibrated at K = 6.0 × 10^3 M^–1 (Table 1, entry 1, Figures S4 and S5). At pD 2.7, further deceleration to k^O = 0.10 M^–1 s^–1 shifted the equilibrium to K = 500 M^–1 (Table 1, entry 2, Figures S6 and S7). […] At equilibrium, the concentration of thiol 10 further decreased slowly due to oxidation into the homodimer (Figure 3C, diamonds).
Equilibrium constants for reactions with two reactants A and B and a product C are […]
3.1.1. Dynamic Covalent Ring Opening with Thiols
General procedure A (at 5 mM): To a solution of deuterated sodium phosphate (200 mM in D 2O, pD 2.7 or 5.4, 180 mM final concentration), a stock solution of substrate (0.10 M in DMSO-d6, 5.0 mM final concentration) was added and stirred. Then a stock solution of 10 (0.10 M in DMSO- d6, 5.0 mM final concentration) was added and vigorously stirred at room temperature. The solution was transferred immediately to an NMR tube and NMR data were recorded repeatedly. The concentration of the substrate or thiol at each time plot was calculated by comparing the integrals of the peaks indicated with arrows in the figures, and plotted. The data points were fitted to obtain k1 with the Equation (S6) or (S7) using Graphpad Prism.
General procedure B (at 2 mM): To a solution of deuterated sodium phosphate (200 mM in D 2O, pD 2.7 or 5.4, 180 mM final concentration), DMSO- d6 (10% DMSO- d6 in the reaction mixture) and a stock solution of substrate (0.10 M in DMSO- d6, 2.0 mM final concentration) were added and stirred. Then a stock solution of 10 (0.10 M in DMSO- d6, 2.0 mM final concentration) was added and vigorously stirred at room temperature. The solution was transferred immediately to an NMR tube and NMR data were recorded repeatedly. The concentration of the substrate or thiol at each time plot was calculated by comparing the integrals of the peaks indicated with arrows in the figures, and plotted. The data points were fitted to obtain k1 with the Equation (S6) or (S7) using Graphpad Prism.
General procedure C (for thiosulfinates): To a solution of deuterated sodium phosphate (200 mM in D 2O, pD 5.4, 170 mM final concentration), a stock solution of substrate (0.10 M in DMSO- d6, 5.0 mM final concentration) was added and stirred. Then a stock solution of 10 (0.10 M in DMSO- d6, 10 mM final concentration) was added and vigorously stirred at room […]
data points were fitted to obtain k1 with the Equation (S14) or (S16) using Graphpad Prism. […]
3.1.2. Dependence of Ring Opening on Proticity
A mixture of deuterated phosphoric acid and NaOD (30% in D 2O), which gave pD 2.7 in D2O, was used as buffer in all solvent mixtures. To a solution of deuterated sodium phosphate (20 mM final concentration) in a mixture of D 2O and DMSO- d6 (540 μL, final D 2O content: […]
concentration) was added and stirred. Then a stock solution of 10 (0.10 M in DMSO- d6, 5.0 mM final concentration) was added and vigorously stirred at room temperature. The solution was transferred immediately to an NMR tube and 1H NMR data were recorded repeatedly. […]

in vitro = conditions: human
HK cells, transporter 28 = experiment: HCHT imaging: inhibition of cytosolic delivery of CTO transporter 28; type: cell-based, Human; conditions: pre-incubation (P), inhibitor 1 h
Protocol: as §1, §2, §3, §4, §5

[2] = with transporter 31, co-incubation (C)

SMILES	RV50 (concentration needed to lower relative viability by 50%) (HeLa Kyoto cells; [2]) [µM]	IC50 (HK cells, transporter 31) [µM]	IC15 (HK cells, transporter 31) [µM]	viability at 7 h, 50 µM (in vitro) [%]	also measured
O=S1(=O)C[C@H](O)[C@@H](O)CS1 [Compound 15]	>500	22	1.5		k^O, rate constant of ring opening ([1]; equimolar 10, rt, pD 2.7, 90% D2O/DMSO-d6, Na+ phosphate 180 mM, substrate 5 mM): >0.56 M^–1 s^–1; krel^O, rate constant of ring opening relative to 3 ([1]; pD 2.7, 90% D2O, 5 mM): >5.6; ring opening faster than 3 (fold) ([1]; with thiol 10, pD 2.7): 5 ×
CC(C)(C)[Si](C)(C)O[C@@H]1CS(=O)(=O)SC[C@@H]1O [Compound 6]		5 ± 1	< 1		viability at 7 h, 5 µM (in vitro): 105 ± 7%
NCCNC(=O)O[C@H]1CSS(=O)(=O)C[C@H]1O [Compound 39]	>50	> 50	14	86	
O=S(O)CC(O)C(O)CSSCC(O)C(O)CS(=O)O (centres unmarked) [Compound 37]	>50	60 ± 20	6.8	97	MIC (concentration needed to reach 15% inhibition) (HK cells, transporter 31): 7 µM
CCN1C(=O)C2SSC1C(=O)N2CC(=O)NCCNC(=S)Nc1ccc(-c2c3ccc(=O)cc-3oc3cc(O)ccc23)c(C(=O)O)c1 (centres unmarked) [Compound 31, reference compound]					toxicity of transporters (in words) (HeLa Kyoto cells; conditions of HCHT screening (28 5 μM, 31 10 μM, 32 0.5 μM)): not toxic
CC(C)(C)[Si](C)(C)O[C@@H]1CS(=O)(=O)SC[C@@H]1OC(=O)NCC[N+](C)(C)C [Compound 38]		47	23	37	
O=c1c2ccccc2[se]n1-c1ccccc1 [Compound 46, Ebselen, reference compound]	>100	49	< 2	40	MIC (concentration needed to reach 15% inhibition) (HK cells, transporter 31): <2 µM
CC(=O)O[C@H]1CSS(=O)(=O)C[C@H]1O [Compound 36]	>50	27	2.1	97	MIC (concentration needed to reach 15% inhibition) (HK cells, transporter 31): 2 µM
CSS(C)(=O)=O [Compound 14, reference compound]					k^O, rate constant of ring opening (or equivalent for acyclic controls) ([1]; equimolar 10, rt, pD 2.7, 90% D2O, Na+ phosphate 180 mM, substrate 2 mM): 0.52 M^–1 s^–1; krel^O, rate constant of ring opening relative to 3 ([1]; pD 2.7, 90% D2O, 2 mM): 5.2
O=C(O)c1cc(SSc2ccc([N+](=O)[O-])c(C(=O)O)c2)ccc1[N+](=O)[O-] [Compound 16, 5,5’-Dithiobis(2-nitrobenzoic acid), reference compound]					viability at 7 h, 5 µM (in vitro): 89%; k^O, rate constant of ring opening (or equivalent for acyclic controls) ([1]; equimolar 10, rt, pD 5.4, 90% D2O/DMSO-d6, Na+ phosphate 180 mM, substrate 5 mM): 0.11 M^–1 s^–1; krel^O, rate constant of ring opening relative to 3 ([1]; pD 5.4, 90% D2O, 5 mM): <0.22; ring opening/exchange slower than CTO 3 (fold) ([1]; with thiol 10, pD 5.4): > 5 ×
CCCNC(=O)O[C@H]1CSS(=O)(=O)C[C@H]1O[Si](C)(C)C(C)(C)C [Compound 43]					IC15 (HK cells, transporter 28; Homo sapiens, 1 h, read-out: MIC (concentration needed to reach 15% inhibition), transporter 28 5 μM): 4.1 µM; IC50 (HK cells, transporter 28; Homo sapiens, read-out: IC50 (concentration needed to reach 50% inhibition), transporter 28 5 μM): > 50 µM; MIC (concentration needed to reach 15% inhibition) (HK cells, transporter 28; transporter 28 5 μM): 4 µM (≈ 1.53 µg/mL); viability at 7 h, 10 µM (in vitro): 87%
C#CCNC(=O)CC[C@H](NC(=O)COCCNC(=O)O[C@H]1CSS(=O)(=O)C[C@H]1O[Si](C)(C)C(C)(C)C)C(=O)NCCOCCNC(=O)O[C@H]1CSS(=O)(=O)C[C@H]1O[Si](C)(C)C(C)(C)C [Compound 44]					viability at 7 h, 10 µM (in vitro): 98%; RV50 (concentration needed to lower relative viability by 50%) (HeLa Kyoto cells; with transporter 28, pre-incubation (P)): 4.1 ± 0.3 µM and 4 µM
